Experiments:
[1] = 28-day pharmacodynamic and liver toxicity study in C57BL/6 mice; assay type: in vivo, mouse; conditions: 28 days; for body weight: 15 or 30 mg/kg IP daily; for signs of physiological or hepatic toxicity: 15 or 30 mg/kg daily IP
Description: Animals: C57BL/6 male mice (−3 months) were purchased from Charles River, UK. All animals were housed and tested following European (Directive on the Protection of Animals used for Scientific Purposes, 2010/63/EU) and UK Home Office regulations. Experiments were approved by the University Ethics Board and carried out in accordance with the Animal (Scientific Procedures) Act 1986 and following ARRIVE guidelines.
Treatments: Mice were randomized in to the five experimental groups: Control (n=9); MD17, 15 mg/kg (n=6); MD17, 30 mg/kg (n=6); MD20, 15 mg/kg (n=6); and MD20, 30 mg/kg (n=6). MD17 and MD20 compounds were administered to mice once daily via intraperitoneal (IP) injection for a period of 28 consecutive days at a dose of either 15 or 30 mg/kg. Peptides were kept in −20 °C and dissolved in sterile phosphate buffered saline (PBS) freshly every day before the injection. Control mice received a daily PBS injection. Three mice died during the study, and the final number of animals in each group was: Control (n=9); MD17, 15 mg/kg (n=5); MD17, 30 mg/kg, (n=6); MD20, 15 mg/kg (n=5); and MD20, 30 mg/kg (n=5). All mice had ad libitum access to food and water and were kept in a 12 h light/dark cycle.
Bodyweights and body mass composition: body weights were recorded during the study and fat and lean mass composition was analysed using an EchoMRI scanner (EchoMedical Systems, Houston, TX, U.S.A.).
Fasted glucose: All animals were 5 h-fasted and tail glucose measured using an AlphaTRAK 2 glucose strips and glucometer (Abbot, UK).
Serum assays: Trunk-derived blood was collected from 5 h-fasted mice in to serum separator microtubes and kept at −80 °C. Serum was used for insulin (#EZRMI-13K, Merck), leptin (#90030, Crystal Chem), free fatty acids (FFA; #mak044, Sigma-Aldrich), alanine and aspartate aminotransferases (ALT and AST; #ab105134 and #ab105135, Abcam) analyses.
Statistical analyses: Data were expressed as means±SEM and were analysed using one- or two-way ANOVA with Bonferroni post hoc tests, as appropriate. GraphPad Prism (V8, GraphPad Software, Inc., San Diego, California, USA) was used for analyses. P-values <0.05 were considered significant.

SH3-2 domain of NCK1 = target: T1, SH3-2 domain of NCK1 (Homo sapiens, UniProt P16333); assay: Isothermal titration calorimetry (ITC) binding to NCK1 SH3-2 domain
T1 construct: To amplify the NCK1 SH3-2 domain, the primers; 10xHis tag with TEV site (vector pSF-OXB20-NH2-10HIS) (N, cleaved yes); made in house; host or cells: E. coli C43(DE3)
Procedure, shortened: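 Measured at 25 °C, pH 8.0 (10 mM sodium buffer, sodium chloride), by calorimetric titration of 3-7.5 mM peptide into 0.125-0.3 mM recombinant NCK1 SH3-2 domain with His tag removed, using 20 injections. Affinities are means of three experiments, fitted with stoichiometry 0.8-1.2.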

Row | Substance | body weight [1] | signs of physiological or hepatic toxicity [1] | Kd (SH3-2 domain of NCK1; Alanine scanning of the MD17 15-mer peptide, ITC, 25 °C, pH 8.0) [µM] | % change in fat mass ([1]; 30 mg/kg IP daily, vs control) | percentage change in body weight pre- versus post-treatment ([1]; 30 mg/kg IP daily, vs control) | Kd (SH3-2 domain of NCK1; Alanine scanning of the MD20 6-mer peptide, ITC, 25 °C, pH 8.0) [µM] | Kd (SH3-2 domain of NCK1; Peptide truncation analysis, ITC, 25 °C, pH 8.0) [µM] | Kd (SH3-2 domain of NCK1; ability to bind SH3-2 domain of NCK1, stated in text) [µM]
1 | Ac-PPPEHIPPPPRPPKR-NH2 [MD17] | No statistically significant differences | did not induce any obvious signs of physiological or hepatic toxicity | ≤ 300 | – | – | – | – | –
2 | Ac-PRPPKR-NH2 [MD20, Ac-PRPPKR-NH2] | No statistically significant differences | did not induce any obvious signs of physiological or hepatic toxicity | – | decreased | significant decrease in % change | ≤ 300 | ≤ 300 | < 193
